Viability data for 31 compounds are collected here from paper PMC12040169 (PLOS Biology, 2025).

The structures appear in SMILES notation.

The viability is a read-out of living cells in per cent, often relative to untreated cells.

This data set is described as follows: in vitro. The following applies: human, hela cells, % viability.

Turning to `O=[N+]([O-])c1ccccc1/C=N/Nc1nnn[nH]1` [CBK260971], the viability at 28.5 h, 10 µM worked out at 106%.
On to `O=[N+]([O-])c1ccc(/C=N/n2c(S)nnc2COc2ccccc2)cc1` [CBK265240], for which the viability at 28.5 h, 10 µM amounted to 91.5%.
Regarding `CCc1n[nH]c(C(=O)NCC(c2ccc(F)cc2)N2CCCC2)c1C` (stereo not shown) [CBK282630], the viability at 28.5 h, 10 µM stood at 85.8%.
In the case of `COc1ccc(C(=O)Nc2ccc3c(c2)C(=O)N(CCC(=O)O)C3=O)cc1` [CBK265921] it was 93.1%; in that of `O=C(O)CC1COCCN1Cc1ccc(Cn2cccn2)cc1` (stereo not shown) [CBK306827], 89.1%; in that of `COc1ccc(OC(=O)c2ccc3nonc3c2)cc1` [CBK083571], 97.9%.
For `Cc1cc(C)c(C)c(OCCCNC(=O)Cc2c(C)noc2C)c1` [CBK281506], the viability at 28.5 h, 10 µM was 100%.
In the case of `O=C(CN1CCN(Cc2ccc3c(c2)OCO3)CC1)Nc1ccc(SC(F)(F)F)cc1` [CBK074385] it was 108%; in that of `CC(=O)Nc1ccc(CN2CCC[C@H]2c2nc(-c3ccnc(NS(C)(=O)=O)c3)no2)cc1` [CBK288888], 109%; in that of `FC(F)(F)c1ccc(OCc2ccc(Cl)c(Cl)c2)nc1` [CBK115831], 90.2%.
The figure for `Cc1nccn1CC1(O)CCN(C(=O)C(C)c2ccccc2)CC1` (stereo not shown) [CBK285388] is 104%; for `Cn1c(Cc2ccccc2)nnc1SCC(=O)Nc1ccc(N2CCOCC2)cc1` [CBK269750] it is 89.8%.
As for `CN(C)C(=O)Cn1nc(C(c2ccccc2)c2ccccc2)oc1=O` [CBK283747], the viability at 28.5 h, 10 µM was determined as 92.6%.
Take `CCCC(=O)N[C@@H](Cn1c(=O)oc2ccccc21)C(C)C` [CBK284536]: the viability at 28.5 h, 10 µM was found to be 91.2%.
For the compound `COc1ccc(C(=O)N2CCC3(CCCN(C(=O)Cc4ccc(Cl)c(Cl)c4)C3)C2)cc1OC` (stereo not shown) [CBK131654], the viability at 28.5 h, 10 µM was 98.1%.
In the case of `COc1cccc(NC(=O)C2CN(S(=O)(=O)c3ccccc3)CCN2S(=O)(=O)c2ccccc2)c1` (stereo not shown) [CBK262694] it was 85.9%.
The figure for `O=C(c1ccncc1)c1ccc(N2CCN(C3CC(=O)N(Cc4ccccc4)C3=O)CC2)cc1` (stereo not shown) [CBK268934] is 106%.
In the case of `Nc1ncnc2nc(-c3ccncc3)nn12` [CBK288550] it was 102%; in that of `CCC(CC)C(=O)N(C)c1c(C)nc2ccc(C(=O)Nc3cccc(NS(C)(=O)=O)c3)cn12` [CBK146526], 105%; in that of `COc1cc(/C=N\Nc2nnc3c(n2)[nH]c2c(C)cccc23)cc(Br)c1O` [CBK262375], 106%.
Turning to `CC(NC(=O)CN(c1ccc(Cl)c(Cl)c1)S(=O)(=O)c1ccccc1)c1ccccc1` (stereo not shown) [CBK263781], the viability at 28.5 h, 10 µM stood at 92.8%.
`O=C(N1CCc2ccc(S(=O)(=O)Nc3ccc(-c4nnn[nH]4)cc3)cc2C1)C(F)(F)F` [CBK155437]: the viability at 28.5 h, 10 µM stood at 99.9%.
`COc1ccc(CN2CCN(C(=O)c3cccc(N(C)C)c3)CC2)cc1` [CBK305713]: the viability at 28.5 h, 10 µM came to 98%.
In the case of `OCCN1CCN(c2nc(C3CCOC3)cn3ccnc23)CC1` (stereo not shown) [CBK037931] it was 98.5%.
For `O=S(=O)(Nc1cccc(Cl)c1)c1ccc(OC(F)(F)F)cc1` [CBK044769], the viability at 28.5 h, 10 µM amounted to 109%.
The figure for `CC1CCc2c(sc3nc(CN4CCCCC4C)[nH]c(=O)c23)C1` (stereo not shown) [CBK304975] is 89.3%.
Turning to `Cc1noc(C)c1S(=O)(=O)Nc1ccc2nsnc2c1` [CBK062223], the viability at 28.5 h, 10 µM was found to be 90.4%.
Regarding `Cc1ccc(S(=O)(=O)Nc2ccc(N3CCCNCC3)cc2N(C)S(C)(=O)=O)cc1` [CBK000017C], the viability at 28.5 h, 10 µM was determined as 113%.
In the case of `CCc1nnc(SCC(=O)Nc2ccc(CN3CCOCC3)cc2)[nH]1` [CBK306097], the viability at 28.5 h, 10 µM is 84.7%.
The figure for `CC(C)(C)c1ccc(-c2cc3ncccc3nc2N)cc1` [CBK081199] is 80.4%; for `O=C(NCc1ccccc1)[C@@H]1Cc2[nH]cnc2CN1C(=O)C1CCCCC1` [CBK288972] it is 113%.
